# Test results from PMC10154249, “Unique progerin C-terminal peptide ameliorates Hutchinson–Gilford progeria syndrome phenotype by rescuing BUBR1” (Nature Aging, 2023).
# Tests used:
# [1] = test system: p53, IL-6 and p21 in HGADFN003 cells; test: Western blot of p53, IL-6 and p21 in HGADFN003 cells; format: cell-based, human
# Procedure: (§1) Western blot was performed as previously described. Cells were lysed in 1× Laemmli sample buffer after washing twice in cold PBS without calcium and magnesium. Protein concentrations were determined using the bicinchoninic acid (BCA) protein assay. Protein lysates were subjected to SDS–PAGE, transferred to 0.45-μm pore size hydrophobic PVDF transfer membrane (Merck Millipore), detected with the appropriate primary antibodies coupled with horseradish peroxidase-conjugated corresponding secondary antibodies, and visualized using enhanced chemiluminescence ECL reagent (GE Healthcare). The Tanon 5500 high-definition low-illumination CCD system (Tanon FLI Capture v.1.02) was used to capture chemiluminescent signals.
# [2] = test system: BUBR1 / CyclinA2 in HGADFN003 cells; test: Western blot of BUBR1 and CyclinA2 in HGADFN003 cells; format: cell-based, human
# Procedure: as §1
# HGADFN167 cells = test: Ki67 immunofluorescence of HGADFN167 cells; format: cell-based, human
# Procedure: (§2) Immunofluorescence was performed as described previously. Cells were plated on cover slips in 12-well plates, left overnight before the treatment. Cells were fixed in 1% formaldehyde in culture medium for 10 min at 37 °C and permeabilized with 0.2% Triton X-100 in PBS for 10 min at room temperature. Cells were washed twice in PBS and blocked for 1 h with 5% BSA in PBS and then incubated with primary antibodies at 4 °C overnight, washed three times in PBS and incubated with secondary antibodies for 1 h at room temperature. Cell nuclei were counterstained with a 500 nM concentration of 4,6-diamidino-2-phenylindole (DAPI) (Sigma). Images were acquired by a fluorescence microscope (OLYMPUS FV-1000, Carl Zeiss LSM880 or Leica DMi8) and analyzed with software NIS-Elements AR v.5.0.1 (Nikon), FLUOVIEW v.4.2b (OLYMPUS), ZEN v.2.3 SP1 (Carl Zeiss) and Leica Application Suite X v.3.6.0.24 (Leica). Cells were quantified by investigators who were blinded to the identity of the analyzed cell.
# HGPS cells = test: Cellular uptake of FITC-modified UPCP; format: cell-based, human
# Procedure: (§3) Fibroblasts from patients with HGPS were obtained from The Progeria Research Foundation Cell and Tissue Bank (http://www.progeriaresearch.org). The following fibroblasts were used: HGADFN003, HGADFN167, HGMDFN090 and HGFDFN168. Human dermal fibroblasts (GM00038 and AG09602) were obtained from Coriell Cell Repository (https://catalog.coriell.org). These cells were characterized by DNA fingerprinting and isozyme detection and were tested by a MycoBlue Mycoplasma Detector (Vazyme Biotech) to exclude mycoplasma contamination before the experiments. […] HGADFN003, HGADFN167, HGMDFN090, HGFDFN168, GM00038 and AG09602 were cultured in DMEM medium with 15% (v/v) fetal bovine serum (VivaCell). […] For bleomycin-induced senescence, IMR90 cells were incubated with the culture medium containing 20 μg ml^–1 Bleomycin (Selleck, catalog no. S1214) for 2 h and analyzed 10 days later, or as otherwise indicated. For doxorubicin-induced senescence, IMR90 cells were treated twice with 100 nM Doxorubicin (Selleck, catalog no. S1208) with a 2 day interval and analyzed 10 days later, or as otherwise indicated. For ionizing radiation (IR)-induced senescence, IMR90 cells were exposed to 10 Gy Gamma rays, and analyzed 10 days later, or as otherwise indicated, the control IMR90 cells were mock irradiated. […]
# PTBP1 = biological target: T1, PTBP1 (Homo sapiens, UniProt P26599); test: Pulldown assay of UPCP and PTBP1; format: binding; conditions: pulldown (and MST); His-UPCP 10 μg with Flag beads-PTBP1, 16 h at 4 °C
# T1 construct: made in house
# Procedure: Cells were harvested and lysed in buffer A mixed with protease inhibitor cocktail tablet (Roche) after 48 h. […] The beads were washed three times using 1× Tris saline buffer (50 mM Tris-HCl (pH 7.4) and 150 mM NaCl)) for 8 min each. The bound proteins BUBR1 or PTBP1 were eluted with 3×Flag peptide (ApexBio) for 2 h at 4 °C. Finally, BUBR1 or PTBP1 was concentrated and recovered by using the Centrifugal Filters (Amicon Ultra).
# A detailed description of the pulldown assay was described previously. His-UPCP fusion protein was expression in bacteria (BL21) and induced with 0.5 mM isopropyl-β-D-thio-galactoside for 16 h at 16 °C. The bacteria were harvested and lysed in TEN buffer (20 mM Tris-HCl (pH7.4), 0.1mM EDTA, 100 mM NaCl). […] His-UPCP was eluted with Imidazole eluent (50 mM NaH2PO4, 300 mM NaCl and 50 mM Imidazole) for 2 h at 4 °C and concentrated and recovered using centrifugal filters (Amicon Ultra). For the pulldown of His-UPCP and Flag-BUBR1 or Flag-PTBP1, 10 μg His-UPCP was incubated with Flag beads (Biotool, catalog no. B23102), Flag beads-BUBR1 or Flag beads-PTBP1 respectively for 16 h at 4 °C. The beads were washed three times with PBS and added to 1× loading buffer for western blot.
# senescent IMR90 cells = test: CCK8 cell viability of DNA damage-induced senescent IMR90 cells; format: cell-based, human; conditions: IMR90, 10 days after bleomycin, doxorubicin, ionizing radiation or etoposide
# Procedure: as §3
# Cell viability was assessed using the Cell Counting Kit-8 (CCK8) (APE, catalog no. k1018). […]
# IMR90-progerin cells = test: 53BP1 foci in IMR90-progerin cells; format: cell-based, human; conditions: IMR90-Flag-progerin+UPCP
# Procedure: as §2
# T1 sequence (P26599 whole entry): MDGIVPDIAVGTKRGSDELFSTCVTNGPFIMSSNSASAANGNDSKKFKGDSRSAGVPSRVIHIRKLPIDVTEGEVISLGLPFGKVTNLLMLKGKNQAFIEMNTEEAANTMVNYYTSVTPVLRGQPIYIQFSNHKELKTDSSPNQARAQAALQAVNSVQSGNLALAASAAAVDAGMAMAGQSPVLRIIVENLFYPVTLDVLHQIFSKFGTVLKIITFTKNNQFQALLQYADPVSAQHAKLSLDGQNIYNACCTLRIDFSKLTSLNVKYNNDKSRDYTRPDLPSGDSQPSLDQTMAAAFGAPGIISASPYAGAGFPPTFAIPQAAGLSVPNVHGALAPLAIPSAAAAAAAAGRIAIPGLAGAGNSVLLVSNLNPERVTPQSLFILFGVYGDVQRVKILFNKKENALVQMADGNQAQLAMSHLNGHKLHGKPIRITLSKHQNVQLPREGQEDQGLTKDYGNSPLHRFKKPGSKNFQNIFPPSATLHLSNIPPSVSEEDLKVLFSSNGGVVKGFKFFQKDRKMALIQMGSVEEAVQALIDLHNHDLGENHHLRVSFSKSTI
substance,measurement,setting,value
"H-YGRKKRRQRRRYNLRSRTVLCGTCGQPADKASASGSGAQSPQNCSIM-OH (cysteines drawn unpaired) [UPCP, unique progerin C-terminal peptide]","level of p53, IL-6 and p21",[1],"decreased level of p53, IL-6 and p21"
same,"BUBR1 expression (FTI-277/UPCP comparison, words)",[2]; HGADFN003,increasing expression of BUBR1
same,"CyclinA2 expression (FTI-277/UPCP comparison, words)",[2]; HGADFN003,"increasing expression of BUBR1, CyclinA2"
same,BUBR1 abundance,"[2]; HGADFN003 cells, UPCP 0–10 μM, Western blot",upregulated BUBR1
same,Ki67 positive cells,"HGADFN167 cells; HGADFN167, replicate 1",53%
same,Ki67 positive cells,"HGADFN167 cells; HGADFN167, replicate 2",45%
same,Ki67 positive cells,"HGADFN167 cells; HGADFN167, replicate 3",56%
same,time to cellular uptake,HGPS cells,≤ 2 h
same,combination with PTBP1,PTBP1,combined with PTBP1
same,proliferation of DNA damage-induced senescent cells,senescent IMR90 cells,did not cause DNA damage-induced senescent cells to proliferate
same,"53BP1 foci per cell, n>10",IMR90-progerin cells; replicate 1,54%
same,"53BP1 foci per cell, n≤10",IMR90-progerin cells; replicate 1,46%
same,"53BP1 foci per cell, n>10",IMR90-progerin cells; replicate 2,43%
same,"53BP1 foci per cell, n≤10",IMR90-progerin cells; replicate 2,57%
same,"53BP1 foci per cell, n>10",IMR90-progerin cells; replicate 3,59%
same,"53BP1 foci per cell, n≤10",IMR90-progerin cells; replicate 3,41%
